The test system of the assay is CEM cells HIV-1 protection, formazan growth assay. As to the kind of experiment: NCI AIDS Antiviral Assay. As to conditions: for IC50: measured here: growth of uninfected CEM cells. In a few lines:
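Steps: treat uninfected and HIV-1-infected human CEM cells at five drug levels; quantify growth by soluble formazan; retest any compound reaching 50% protection; classify actives from the retest.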

Structures are written as SMILES. Several values for one entry are separate records, joined by “and”; a condition that tells them apart may be missing. Equal values may be shown once. Activity calls are given as the source filed them.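 How the source made its calls: active means compounds giving half or more protection of infected cells from virus-caused growth loss, again on retest; inactive means the rest.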

Take `NC/C(=C\C(=O)O)c1ccc(Cl)cc1`: the result was inactive. As for `COC1CC(OC2C(C)OC(OC3C(C)OC(OC4C(C)OC(O[C@H]5CC[C@@]6(C)C(=CC[C@]7(O)[C@@H]6C[C@@H](OC(C)=O)[C@@]6(C)[C@]7(O)CC[C@@]6(O)C(C)=O)C5)CC4OC)CC3OC)CC2OC)OC(C)C1O` (stereo not given in full), the EC50 is over 200 µM and the IC50 was over 200 µM. As for `Cc1ccc(S(=O)(=O)NC(=O)NN2CCCCCC2)cc1`, the EC50 is over 200 µM and the IC50 is over 200 µM.

Take `C/C(=N\N=C(N)N)C(CN(CC(C)C)CC(C)C)C(=O)Nc1ccc(C)cc1C` (stereo not given): the EC50 was over 17.8 µM and the IC50 was over 17.8 µM. Take `CCCC[C@H]1CCN2C[C@@H](O)[C@@H](O)[C@H]2[C@@H]1O`: the EC50 is over 200 µM and the IC50 was over 200 µM. Consider `S=C(N/N=C(/c1ccccc1)c1ccccn1)Nc1ccccc1Cl`, for which the EC50 was over 0.2 µM and the IC50 came to 0.0871 µM.

As for `O=C(Nc1ccc(Cl)cc1)C1C(=O)C(=O)N(c2ccc(Cl)cc2)C1=O` (stereo not given), the result was inactive. `NCCCCCS(=O)(=O)O`: the EC50 was over 9330 µM and the IC50 is over 9330 µM. `O=C(O)c1ccc(S(=O)(=O)c2cccc([N+](=O)[O-])c2)cc1`: the EC50 is over 200 µM and the IC50 was over 200 µM. `CCOC(=O)/C(=C/c1ccc(N(CCC#N)CCC#N)cc1C)NC(=O)/C=C/c1ccccc1`: the result was inactive. On to `CCN(CC)C(C)(O)CN` (stereo not given), for which the EC50 was over 200 µM and the IC50 was over 200 µM. Consider `COc1ccc2[nH]c3c(c2c1)COc1ccccc1C3=O`, for which the EC50 is over 200 µM and the IC50 is over 200 µM.

Consider `Nc1ccc[nH]c1=O`, for which the EC50 was over 234 µM and the IC50 was over 234 µM.

With `C[C@]12CC[C@H]3[C@@H](CC[C@]4(O)C[C@@H](O)CC[C@]34C=O)[C@@]1(O)CC[C@@H]2C1=CC(=O)OC1`, the EC50 is over 2 µM and the IC50 stood at 0.24 µM. As for `COC(=O)[C@@H]1C(CO)[C@H](n2cc(C)c(=O)[nH]c2=O)C1(C)C` (stereo not given in full), the EC50 was over 437 µM and the IC50 is over 437 µM. Regarding `CC(C(=O)c1cc(O)c(O)cc1C(O)(C(F)(F)F)C(F)(F)F)C(O)(C(F)(F)F)C(F)(F)F` (stereo not given), the EC50 is 70.8 µM and the IC50 was over 100 µM. For `Cc1ccc(S(=O)(=O)NC(=O)Nc2sc(=S)c3c(c2C#N)CCCC3)cc1`, in that order: over 309 µM and 58.9 µM. For `COc1ccc(CC2C(=O)NC(=O)NC2=O)cc1OC`, in that order: over 200 µM and over 200 µM. For `Clc1ccc(CNc2nc3ccccc3nc2-c2cccs2)c(Cl)c1`, in that order: over 9.77 µM and over 9.77 µM. As to `C[C@@H]1C(=O)CC2(O)[C@@]13C[C@@H](OC(=O)[C@@H]3O)[C@@H](C)[C@@]21COC1=O` (stereo not given in full), the EC50 is over 813 µM and the IC50 was over 813 µM. As for `CC(=O)OC(C)C1C2=C(C(=O)CC1(C)O)C(=O)c1c(ccc(-c3ccc4c(c3O)C(=O)C3=C(C4=O)C(C(C)OC(C)=O)C(C)(O)CC3=O)c1O)C2=O` (stereo not given), the EC50 was over 66.1 µM and the IC50 amounted to 0.263 µM.

Take `O=[N+]([O-])C(/C=C(\Cl)n1nnc2ccccc21)=C(/Cl)n1nnc2ccccc21`: the EC50 is over 200 µM and the IC50 is over 200 µM. As to `COC/C=C\[C@]1(O)CCCC[C@@H]1CC(OC)OC`, the EC50 is over 200 µM and the IC50 was 30.9 µM. As to `C=C1C=CC2(Br)OC3CC(C)(Cl)C(Br)CC13C2(C)C` (stereo not given), the outcome was inactive. Consider `CC(=O)Nc1ccc(Nc2cc(=O)[nH]c(=O)[nH]2)cc1`, for which the EC50 is over 200 µM and the IC50 is over 200 µM.

As to `O=C(O)C1C2c3ccccc3C(c3ccccc32)C1C(=O)O` (stereo not given), the EC50 is over 851 µM and the IC50 was over 851 µM. For the compound `Cc1cc(Cl)cc(S)c1S(=O)(=O)Nc1nnc2c3ccccc3cnn12`, the EC50 was 77.6 µM and the IC50 is over 200 µM. For `Cc1nnc(NC2=NCCO2)s1`, in that order: over 200 µM and over 200 µM.

In the case of `CC1=NN(C(=O)Cc2ccccc2)C(=O)/C1=C\c1ccc([N+](=O)[O-])cc1`, the EC50 is over 53.7 µM and the IC50 was over 53.7 µM. As for `CCCCCCC(C)CCCCCCCCCCC(=O)OCC(COP(=O)([O-])OCC[N+](C)(C)C)OC(=O)CCCCCCCCCCC(C)CCCCCC` (stereo not given), the result was inactive.

For `CC(C)OC/N=C(/N)NC#N`, the EC50 is over 575 µM and the IC50 was over 575 µM. `COC(=O)CNC(=O)CCSc1nnc(COc2ccc(Cl)cc2)n1-c1ccccc1`: the EC50 is over 200 µM and the IC50 was 33.9 µM.

Consider `Cc1[nH]c(=S)c(C#N)c(C)c1C`, for which the EC50 is over 100 µM and the half-maximal inhibitory concentration (IC50) is over 100 µM. Turning to `c1ccc(-c2csc3n4ccccc4c[n+]23)cc1`, the outcome was inactive. As to `COc1cc(OC)c2nc(C)c3c(c2c1)SCC3`, the EC50 was over 200 µM and the IC50 is over 200 µM. Consider `CCCCCC(=O)Cc1cc(O)cc2c1C(=O)Oc1cc(O)c(C(=O)O)c(CCCCC)c1O2`, for which the EC50 is over 200 µM and the IC50 was 33.9 µM.

For the compound `O=C1/C(=C/c2ccccc2)CN(C(=O)CCN2CCOCC2)C/C1=C\c1ccccc1`, the EC50 is over 79.4 µM and the IC50 stood at 0.525 µM. On to `O=c1c2[nH]c3cccc(Cl)c3c2cnn1-c1ccc(F)cc1`, for which the EC50 was over 6.03 µM and the IC50 was over 6.03 µM. Consider `O=c1c2c3c(sc2nc2n1N=CN(c1ccc(F)cc1)C2)CCCC3`, for which the EC50 is over 200 µM and the IC50 was over 200 µM. As to `COc1ccc(C(c2ccccc2)N2C(=O)CCC2C(=O)O)cc1OC` (stereo not given), the EC50 is over 200 µM and the IC50 is over 200 µM. On to `COC(=O)c1ccc(CO/N=C(\c2ccccc2)c2ccncc2)cc1`, for which the EC50 was over 200 µM and the IC50 worked out at 66.1 µM.

Regarding `N#C/C(=C\NC(=S)C(N)=S)c1nc2ccccc2s1`, the EC50 was over 200 µM and the IC50 worked out at 5.75 µM. As for `O=[N+]([O-])c1ccccc1S(=O)(=O)c1cccc2c1NCCC2`, the EC50 is 3.47 µM and the IC50 was 38 µM. `CNC(=S)Nc1sc2c(c1C#N)CCCC2` displayed an EC50 of 148 µM and an IC50 of 151 µM. The matching figures for `CC1(O)CC2C(CC1SC1CC3C(CC1(C)O)C3(C)C)C2(C)C` (stereo not given): over 200 µM and over 200 µM. `C1=CC(=P(c2ccccc2)(c2ccccc2)c2ccccc2)C=C1`: the result was inactive.

Turning to `S=C1NC2=C(COC/C2=C\c2cccc(Cl)c2)C(c2cccc(Cl)c2)N1` (stereo not given), the result was inactive. Take `CCCCC1Sc2cc(OC)cc3nnn(c23)C1=O` (stereo not given): the EC50 was over 200 µM and the IC50 is over 200 µM.

Consider `O=C1N=C(C=c2ccc(=Cc3[nH]c(=O)n(CN4CCCCC4)c3O)cc2)C(=O)N1CN1CCCCC1`, for which the EC50 was over 100 µM and the IC50 was determined as 22.4 µM.

Consider `CC1=C2C(=O)[C@H]3[C@@H](CC=C4C[C@@H](O)CC[C@@]43C)[C@@H]2CC[C@]12O[C@@H]1C[C@H](C)CN[C@H]1[C@H]2C`, for which the EC50 was over 200 µM; the IC50 is > 2.45 µM and 102 µM.

With `O=NN1C(c2ccccc2)CCCC1c1ccccc1` (stereo not given), the EC50 was over 51.3 µM and the IC50 is over 51.3 µM.

As for `CCOC(=O)C1=C(Nc2ccc(Cl)c(Cl)c2)OC/C1=N\NC(=O)Cc1ccccc1`, the EC50 is over 100 µM and the IC50 was over 100 µM. As for `CCCCCCCCCC=C(c1cc(Cl)c(OC)c(C(=O)OC)c1)c1cc(Cl)c(OC)c(C(=O)OC)c1`, the EC50 is over 23.4 µM and the IC50 is over 23.4 µM. With `CCOC(=O)[C]1([Bi]([CH3])[CH3])N=NC(C(=O)OC)=C1C(=O)OC` (stereo not given), the EC50 was 17.4 µM and the IC50 worked out at 26.3 µM. Regarding `O=C(O)COc1ccc(O)c2c1C(=O)CCCC2=O`, the result was inactive.

As for `CC1=N[C@](C)(C2CC3C=CC2C3=O)COC1=O` (stereo not given in full), the EC50 was over 562 µM and the IC50 is over 562 µM. `O=c1cc(-c2ccccc2)nc(/C=C(\O)c2ccncc2)n1-c1ccccc1`: the EC50 was over 3.98 µM and the IC50 is over 3.98 µM.

`CC(CC(=O)N1C2CC3CCC2(CS1(=O)=O)C3(C)C)[Si](C)(C)C` (stereo not given): the EC50 was over 200 µM and the IC50 was 74.1 µM. For `Cn1c(=O)cc(C=Nc2ccc(N=Nc3ccccc3)cc2)c2ccccc21`, in that order: over 200 µM and 1.51 µM. The matching figures for `CCCN1CN(c2ccccc2)C2(CCN(CCCC(=O)c3ccc(F)cc3)CC2)C1=O`: over 200 µM and 3.02 µM. Turning to `CCOC(=O)C(C)c1c(C(=O)c2ccc(C)nc2)c2ccccc2n1C` (stereo not given), the outcome was inactive.

As to `Cc1ccc2c(c1)-c1c(C#N)c(N)nc(-c3ccc(Cl)cc3)c1CCS2(=O)=O`, the EC50 was over 200 µM and the IC50 amounted to 3.16 µM. On to `C=C1C(=O)SC(=NCc2ccccc2)N1C`, for which the EC50 is over 204 µM and the IC50 was 132 µM.

Consider `c1cc(C[S+]2CCCC2)ccc1C[S+]1CCCC1`, for which the EC50 is over 100 µM and the IC50 is over 100 µM. Consider `O=S(=O)(O)C(Br)(Br)Br`, for which the EC50 is over 200 µM and the IC50 is over 200 µM. With `O=C(O)CCCn1nnc2c(=O)[nH][nH]c(=O)c21`, the EC50 is over 200 µM and the IC50 is over 200 µM.

For `Cc1ccccc1S(=O)(=O)OC1NS(=O)(=O)c2ccccc21` (stereo not given), the EC50 is over 200 µM and the IC50 is over 200 µM. Regarding `CCOC(=O)c1[nH]c2c(cc(C=O)c3ccccc32)c1C`, the EC50 is over 200 µM and the IC50 worked out at 60.3 µM.

As to `O=C1NC(=O)C(=Cc2ccccc2Br)C(=O)N1`, the EC50 was over 229 µM, the result was inactive and the IC50 came to 2.4 µM. Regarding `COC(=O)C(C(=O)C(=O)Nc1cccc(OC)c1)c1cnc2ccccc2n1` (stereo not given), the EC50 is over 69.2 µM and the IC50 is over 69.2 µM.

As for `COc1cc(/C=C/C(=O)OC[C@]23O[C@H]2[C@@H](OC2OC(C)C(O)C(O)C2O)C2C=CO[C@@H](OC4OC(CO)C(O)C(O)C4O)C23)ccc1O` (stereo not given in full), the EC50 was over 200 µM and the IC50 was over 200 µM. With `CN=C(n1ccnc1)n1ccnc1`, the EC50 was over 200 µM and the IC50 was over 200 µM.

The values above are taken from PubChem BioAssay AID179 (DTP/NCI, 2004).
